Data reported in patent US20150335678A1, “METHOD OF ACTIVATING STEM CELLS IN AN ANIMAL AND THE USE OF CHLORINE DIOXIDE FOR PREPARING MEDICINES FOR ACTIVATING STEM CELLS IN AN ANIMAL” (priority 2012, published 2015).

Legend:
[1] = system: CD34-positive mononuclear cells; assay: CD34-positive mononuclear cells in peripheral blood of lower limb DVT patients, flow cytometry (Example 2); assay type: in vivo, human; conditions: before administration 0.38 ± 0.42, 14 days
Source text: The subjects consisted of 14 male and 6 female lower limb DVT patients with the unilateral limb suffer from the illness, aged from 59 to 76 years old (average age: 67.2 years old). The purpose of the clinical test was explained to all subjects and their consent was obtained before conducting the clinical test.
The first solution was a mixed solution made of sodium chlorite with the concentration of 7.47% and sodium chloride with the concentration of 1.59% with deionized water; the second solution was made of citric acid with the concentration of 16.7% with deionized water. Same volume of solutions were taken out from different vessels with different volumes and mixed up. Allow the solution to mix for 3-5 minutes and dilute it 5 times with normal saline, then filter it with 0.22 μm filter membrane of double-deck. The solution was immediately put into injector. The solution was prepared once being used. […]
Five ml of peripheral blood was collected from the median cubital vein of the forearm of each patient using low molecular weight heparin anticoagulant before administration (before initial administration) and on day 7 and 14 after administration, and the collected blood was immediately stored at 4° C. and measured within 6 hours after collection. […]

[2] = system: androgenetic alopecia (hair-loss patients); assay: Androgenetic alopecia patients, solution smeared on alopecia area (Example 1); conditions: for increased ratio of hair density vs before administration, Region 1 (center of crown) / increased ratio of hair density vs before administration, Region 2 (middle of crown and forehead) / increased ratio of hair density vs before administration, Region 3 (on the forehead) / increased ratio of hair density vs before administration, Region 4 (both sides of forehead): 5.1 cm2 circle
Experimental: Drug preparation: The first solution was a mixed solution made of sodium chlorite with the concentration of 7.47% and sodium chloride with the concentration of 1.59% with deionized water; the second solution was made of citric acid with the concentration of 16.7% with deionized water.
Dosage and administration: Same volume of solutions were taken out from different vessels with different volumes and put into the suitable glass or plastic cups prepared. Allow the solution to mix for 3-5 minutes and then filter the solution with 0.22 μm filter membrane of double-deck. The alopecia area was smeared with the solution by swab, waiting for 1-2 hours before cleaning the head, once a day. The medicine was taken according to the course of treatment. The first course of treatment was 15-25 days, the second course of treatment began after 2-5 months of drug withdrawal. The administration days were 10-15 days from the second course of treatment, and the next course of treatment began after 2-5 months of drug withdrawal.
The subjects consisted of 42 male hair-loss patients and one patient (22-68 years old.) They were willing to use the drug (hereinafter referred to as administration). See Table 1 for specific information.
To select four circular regions (5.1 cm^2) with diameter of 2.54 cm in the following regions: the center of crown (in front of the whirl on the head, region 1), the middle of crown and forehead (region2), on the forehead (region 3), both sides of forehead (region 4), and calculate the amount of hair through digital photographs respectively on the 10th day (t1), the first month (t2), second month (t3) after administration of the first course of treatment, and the second month (t4) after administration of the second course of treatment, as well as the second month (t5) after administration of the third course of treatment. Then the increased ratios of hair density in different regions were worked out by comparing the amount of hair before administration. (See Table 2)

chronic eczema = assay: Chronic eczema patients, topical solution (Example 7); assay type: in vivo, human
Experimental: The subjects consisted of 12 patients with chronic eczema and average seven years of course of disease. External used medicines and oral administration, such as glucocorticoid and antihistamine drug were used discontinuously, but were poor in treatment. Activating agent was administered according to the following methods:
To smear solution over the affected parts immediately, once a day for consecutive 10 to 15 days, and then stop administration. If the eczema relapsed, reusing it again.

gastric ulcer = assay: hp-positive gastric ulcer patients: symptoms and ulcer healing by gastroscopy (Example 11); assay type: in vivo, human
Experimental: The subjects consisted of 90 gastric ulcer patients (50 male and 40 female) of hp-positive aged from 33 to 75 years old (average age: 41 years old). The subjects were randomly assigned to treatment group and control group with 30 patients in treatment group and 30 in control group 1 and 30 in control group 2 respectively.
Allow the solution to mix for 3-5 minutes. The capsule that containing activating agent of stem cells was made by injecting the mixed solution into the soft capsule of number 0.
The capsule that containing activating agent of stem cells was administered to the patients in treatment group three times a day and a pill each time; 30 minutes before meals, patients in control group 1 took orally 15 mg colloidal bismuth and 100 mg pectin tinidazole for three times a day. And 20 mg Omeprazole two times a day; patients in control group 2 took orally […] amoxicillin and 500 mg clindamycin three times a day and 20 mg esomeprazole twice a day before meals. Both groups were administered for a consecutive week. To observe the improvement of the clinical symptoms of the three cases two weeks after administration, such as stomachache, nausea and sour regurgitation. Gastroscopy and urease test of gastric antral mucosa were conducted after 30 days to observe ulcer healing and eradication of hp.
Criteria for measuring the effects: the changes of conditions before and after treatment and the time the symptoms disappear were recorded precisely. Diagnostic criteria are the followings: 1) complete healing: the symptoms disappear, such as ache, heartburn, nausea, sour regurgitation, abdominal distention; cure of ulceration under a gastroscope and the inflammation is gone; H pylori is negative. 2) Almost healing: subjective symptom disappear, and more than 90% ulceration are healed and the inflammation around is gone. 3) Effective: more than half of the ulcer surface shrink or more than half of ulceration reduced; 4) Ineffective: less than half of the ulceration are healed or haven't been changed, or even the ulcer surface or ulceration increase. To conduct rapid urease test by taking one sample of gastric mucosa at antrum of stomach and gastric body respectively, if the results are negative, it means Hp negative conversing.

[3] = 2-6 days after administration, n=43, NaClO2 7.47% + citric acid 16.7% 1:1, topical once a day
[4] = 3-5 days after administration, n=43, NaClO2 7.47%/NaCl 1.59% + citric acid 16.7% mixed 1:1, smeared on alopecia area once a day
[5] = 15-25 days after administration, n=43, NaClO2 7.47% + citric acid 16.7% 1:1, topical once a day
[6] = T1: 10th day, first course, n=43, NaClO2 7.47% + citric acid 16.7% topical
[7] = T2: first month after administration of first course, n=43, NaClO2 7.47% + citric acid 16.7% topical
[8] = T3: second month after administration of first course, n=43, NaClO2 7.47% + citric acid 16.7% topical
[9] = T4: second month after administration of second course, n=43, NaClO2 7.47% + citric acid 16.7% topical
[10] = T5: second month after administration of third course, n=43, NaClO2 7.47% + citric acid 16.7% topical
[11] = inventor's observation, chlorine dioxide solution applied every day
[12] = medicine stopped for 2-5 months after a course of treatment, n=43, NaClO2 7.47% + citric acid 16.7% 1:1, topical once a day
[13] = 12 cases traced for eight months

Q: For [O][Cl+][O-] [chlorine dioxide solution, chlorine dioxide], which “CD34-Positive Mononuclear Cells (ratio among mononuclear cells, mean±SD)” value ([1]; Day 7 after administration, n=20, NaClO2 7.47% + citric acid 16.7% 1:1 diluted 5 times, 10 ml/body/day femoral artery puncture) is on record?
A: 0.91 ± 0.51 %

Q: And the “CD34-Positive Mononuclear Cells (ratio among mononuclear cells, mean±SD)” value ([1]; Day 14 after administration, n=15, diluted solution 10 ml/body/day femoral artery puncture)?
A: 1.4 ± 0.68 %

Q: What about the “Effective rate: hair in the affected area fell off quickly” value [2, 3] of the same compound?
A: 100%

Q: And the “No. effective patients: hair in the affected area fell off quickly” value [2, 3]?
A: 43

Q: What about the “Effective rate: beard like new hair regrew, seen by naked eyes” value [2, 4] of the same compound?
A: 98%

Q: What about the “No. effective patients: beard like new hair regrew, seen by naked eyes” value [2, 4] of the same compound?
A: 42

Q: What about the “Effective rate: new hair grew persistently” value [2, 5] of the same compound?
A: 93%

Q: What about the “No. effective patients: new hair grew persistently” value [2, 5] of the same compound?
A: 40

Q: What about the “increased ratio of hair density vs before administration, Region 1 (center of crown)” value (shortened to “increased ratio … (center of crown)”) ([2]; T1: 10th day, first course, digital photographs, n=43, NaClO2 7.47% + citric acid 16.7% topical once a day) of the same compound?
A: 123%

Q: And the “increased ratio of hair density vs before administration, Region 2 (middle of crown and forehead)” value (shortened to “increased ratio … (middle of crown and forehead)”) [2, 6]?
A: 117%

Q: And the “increased ratio of hair density vs before administration, Region 3 (on the forehead)” value (“increased ratio … (on the forehead)” below) [2, 6]?
A: 133%

Q: What about the “increased ratio of hair density vs before administration, Region 4 (both sides of forehead)” value (“increased ratio … (both sides of forehead)” for short) [2, 6] of the same compound?
A: 102%

Q: And the “increased ratio … (center of crown)” value [2, 7]?
A: 137%

Q: What about the “increased ratio … (middle of crown and forehead)” value [2, 7] of the same compound?
A: 129%

Q: What about the “increased ratio … (on the forehead)” value [2, 7] of the same compound?
A: 134%

Q: What about the “increased ratio … (both sides of forehead)” value [2, 7] of the same compound?
A: 157%

Q: What about the “increased ratio … (center of crown)” value [2, 8] of the same compound?
A: 154%

Q: What about the “increased ratio … (middle of crown and forehead)” value [2, 8] of the same compound?
A: 142%

Q: And the “increased ratio … (on the forehead)” value [2, 8]?
A: 153%

Q: What about the “increased ratio … (both sides of forehead)” value [2, 8] of the same compound?
A: 163%

Q: And the “increased ratio … (center of crown)” value [2, 9]?
A: 196%

Q: And the “increased ratio … (middle of crown and forehead)” value [2, 9]?
A: 185%

Q: What about the “increased ratio … (on the forehead)” value [2, 9] of the same compound?
A: 201%

Q: And the “increased ratio … (both sides of forehead)” value [2, 9]?
A: 260%

Q: What about the “increased ratio … (center of crown)” value [2, 10] of the same compound?
A: 354%

Q: What about the “increased ratio … (middle of crown and forehead)” value [2, 10] of the same compound?
A: 402%

Q: And the “increased ratio … (on the forehead)” value [2, 10]?
A: 396%

Q: What about the “increased ratio … (both sides of forehead)” value [2, 10] of the same compound?
A: 433%

Q: And the “time until new hair could grow, most of patients” value ([2]; after administration, topical once a day)?
A: 2 to 3 days

Q: And the “duration of stabbing pain after application” value ([2]; human, in vivo)?
A: 15 to 30 min

Q: What about the “time until new hair grows in alopecia area with hair” value [2, 11] of the same compound?
A: third to the fifth day

Q: What about the “time until new hair grows in alopecia area without hair” value [2, 11] of the same compound?
A: about 20 days

Q: What about the “Effective rate: hair recovered by one level, judged by naked eyes” value [2, 12] of the same compound?
A: 81%

Q: And the “No. effective patients: hair recovered by one level, judged by naked eyes” value [2, 12]?
A: 35

Q: And the “skin reaction in the administered area” value ([2]; when administered for three days, red spot like solidified bleeding wound)?
A: micro wound was produced

Q: What about the “cases that recurred once and did not recur after treatment for two times” value (chronic eczema; [13]) of the same compound?
A: four

Q: What about the “cases that recurred twice and did not recur after the third treatment” value (chronic eczema; [13]) of the same compound?
A: two

Q: And the “cases with no recurrence” value (chronic eczema; [13])?
A: six

Q: What about the “clinical sign and pathological change of tissue after treatment” value (chronic eczema; 12 chronic eczema patients) of the same compound?
A: became normal

Q: And the “time until stabbing pain and itching disappeared after administration” value (chronic eczema; 12 chronic eczema patients, NaClO2 8%/NaCl 2% + citric acid 12% 1:1, smeared once a day 10 to 15 days)?
A: about half an hour

Q: And the “time until the affected parts scabbed” value (chronic eczema; 12 chronic eczema patients, topical once a day)?
A: two to five days

Q: And the “Symptoms disappear after a week (No.)” value (gastric ulcer; 30 hp-positive gastric ulcer patients per group, administered for a consecutive week, test capsule NaClO2 20%/NaCl 5% + citric acid 30% 1:1, one pill three times a day)?
A: 30

Q: What about the “Effective after 30 d (%)” value (gastric ulcer; 30 patients per group) of the same compound?
A: 3.3%

Q: And the “Healing after 30 d (%)” value (gastric ulcer; 30 patients per group)?
A: 3.3%

Q: And the “Symptoms disappear after a week (%)” value (gastric ulcer; 30 patients per group, administered for a consecutive week)?
A: 100%

Q: What about the “Healing after 30 d (No.)” value (gastric ulcer; 30 patients per group, almost healing: more than 90% ulceration healed) of the same compound?
A: 1

Q: What about the “Complete healing after 30 d (%)” value (gastric ulcer; 30 patients per group, gastroscopy) of the same compound?
A: 93.3%

Q: And the “Complete healing after 30 d (No.)” value (gastric ulcer; 30 patients per group, gastroscopy, administered for a consecutive week)?
A: 28

Q: What about the “Effective after 30 d (No.)” value (gastric ulcer; 30 patients per group, more than half of ulcer surface shrink) of the same compound?
A: 1
